Test results reported in ChEMBL document CHEMBL3507680, “University of Dundee, Gates Library screen for HepG2 cell viability”.

Test: Human HepG2 cell viability assay in 384 well format
Assay type: toxicity, cell-based
Parameters: dose 125 nL, time 70.5 hour; concentration not given beside the values
Details: HepG2 cells, read-out: Inhibition

Compound | cytotoxicity at 70.5 h
CC(c1cccnc1)N(C)Cc1cc2cc3c(cc2[nH]c1=O)OCO3 (stereo unspecified) | 2.59%
CCC(C)(CC(=O)OC)NCc1nc(C)no1 (stereo unspecified) | 28.3%
O=C(COc1ccc(F)cc1)N1CCO[C@H]2[C@@H](OCC3CC3)CC[C@@H]21 | -6.33%
Cc1c(C)n2c(SCC(=O)N3CCOCC3)nnc2[nH]c1=O | -3.31%
CCOC1COC2(CCN(Cc3ccc(C)cc3)CC2)C1 (stereo unspecified) | -11.9%
N#Cc1ccc(F)c(CN2CCCC2Cn2cccn2)c1 (stereo unspecified) | -5.17%
NC(=O)NC(=O)CCN1CCCN(c2nccs2)CC1 | 0.668%
CN1CCN(C(=O)[C@@H]2CC[C@@H]3[C@@H](CCN3c3ncccn3)O2)CC1 | -7.39%
CN(C)CCCN(CCC#N)C(=O)Nc1ccc2[nH]ccc2c1 | -4.34%
CNC(=O)NC(=O)Cn1cc(-c2ccccc2)cn1 | -2.21%
c1coc(CN2CCc3nnc(COc4cncnc4)n3CC2)c1 | -13.1%
CN(C)CCN1C(=O)C2(CCN(CC3CC3)CC2)c2ccccc21 | -4.59%
CCN(CC)Cc1cc(C(=O)N2CCCC(O)(CO)C2)c(C)o1 (stereo unspecified) | -7.27%
CCS(=O)(=O)N1CCCCC1c1nc(CC(C)C)no1 (stereo unspecified) | -8.14%
O=C(c1ccc(Br)o1)N1CCCCC1Cn1cccn1 (stereo unspecified) | -10.3%
CC(C)(C)c1c[nH]c([C@@H]2COCCN2C2CCCCC2)n1 | -0.143%
CC1CCN(CC(O)CN2CCn3c(nnc3C3CC3)C2)CC1 (stereo unspecified) | 35.7%
O=C(CC1Cn2ncnc2NC1=O)Nc1ccc(F)c(F)c1 (stereo unspecified) | -7.69%
COc1cc(C)ccc1OCC(=O)NS(=O)(=O)c1ccc(Br)s1 | -4.31%
O=C(NCCc1cccnc1)NCCc1cccs1 | 2.09%
COCCN1CCN(CC(=O)N(C)Cc2ccc(C)o2)CC1C (stereo unspecified) | -12.6%
COCCC(=O)N1CCC(NC(=O)c2cscc2C)CC1 | 6.09%
Cc1nn(C)cc1-c1cc(C(F)(F)F)c2c(C)nn(CC(=O)O)c2n1 | 32%

Compound | cytotoxicity at 70.5 h
CS(=O)(=O)NCc1cncc2c1CCN(C(=O)c1cccnc1)C2 | -5.3%
COc1ccc(CN2CC[C@H](c3nnc(-c4ccco4)o3)C2)cc1 | 23%
Cc1occc1C(=O)N1CCC2(CCN(Cc3nccs3)C2)CC1 | -11%
C[C@H](N)C(=O)N1CCC(c2[nH]ncc2-c2ccccc2)CC1 | -4.88%
COc1ccc(Cc2cccc(C3CCN(C)CC3)n2)cc1 | -6.68%
CCOC(=O)c1cnn(C2CCN(C(=O)CC(C)(C)C)CC2)c1N | 4.77%
O=C(c1ccncc1F)N1CCc2ncnc(C3CC3)c2CC1 | -1.77%
CCOC(=O)N1CC(=O)N(CCc2ccccc2)CC(O)C1 (stereo unspecified) | 5.59%
COCCCN(C)C(=O)c1cccc(Nc2cnccn2)c1 | 24.1%
Cc1ccc(-c2noc(Cn3nc(C(N)=O)ccc3=O)n2)cc1 | -8.12%
O=c1c(CN2CC3CCCN3C[C@@H]2CCO)coc2ccc(Cl)cc12 (stereo partly specified) | -6.6%
O=C(NCCCO)C1CC(=O)N(c2n[nH]c3cccc(F)c23)C1 (stereo unspecified) | 1.35%
O=C1CC(c2ccsc2)c2sc(C(=O)O)c(-c3ccccc3)c2N1 (stereo unspecified) | -11.4%
Cc1sc2nc(CCN)nc(N3CCS(=O)(=O)CC3)c2c1C | -0.146%
CS(=O)(=O)CCCSCc1cc(F)cc(Br)c1 | -4.67%
CCC(=O)N1CCC(Cc2ccccc2-c2ccccc2F)(C(N)=O)C1 (stereo unspecified) | -8.54%
Cc1cc(C)n(CC(C)NCc2cnc3c(C)cccn23)n1 (stereo unspecified) | -2.32%
CN(C)Cc1noc2c1CN(Cc1ccsc1)CC2 | -5.59%
Cc1cnc(NC(=O)C(C)n2ccc(C(F)(F)F)n2)s1 (stereo unspecified) | -5.09%
CCCC1CCCN(Cc2csc(-c3ncccn3)n2)CC1 (stereo unspecified) | -1.51%
Cc1cccc(CNC(=O)Nc2ccc3c(c2)CCCC(=O)N3)c1 | -1.4%
Cn1cc(CN2C[C@@H]3COC[C@]3(COc3ccc(C#N)cn3)C2)cn1 | -10.6%
CC(C)c1ccn(C2(C(=O)O)CCN(c3cc(C(N)=O)ccn3)CC2)n1 | -3.6%

Compound | cytotoxicity at 70.5 h
CCCNCc1ncc(C)c(OC)c1C | -6.98%
CNC(=O)N1CCc2cc(C(=O)N(C)C)c(NCC3CC3)nc2CC1 | -12%
CCN(CC)C(=O)CN(C)C(=O)c1cc(-c2cccc(Cl)c2)no1 | -15.3%
Cn1c(SCC(O)COCc2ccc(Cl)cc2)nnc1C1CC1 (stereo unspecified) | -3.52%
COCc1cc(N2C[C@@H](C)[C@](O)(C3CC3)C2)ncn1 | 0.518%
CCC(CC)C(=O)N1CCN(Cc2cc(-c3ccncc3)nn2C)CC1 | 1.08%
Cc1ccc(CN2C[C@H]3C[C@H](C(=O)NCc4cccnc4)[C@@H](C2)O3)cc1 | 37.6%
CC(C)c1cc(O)nc(C2CCCN2C(=O)C2CC2)n1 (stereo unspecified) | -1.44%
Fc1cccnc1N1CCC2(CNCCC2(F)F)C1 (stereo unspecified) | 12.5%
O=C1[C@@H]2CN(c3ncnc4[nH]ccc34)C[C@]2(C(=O)O)CN1CC1CC1 | -9.8%
CC(=O)N1CCC(n2nccc2-c2cnc(N)nc2)CC1 | -6.3%
CCCN1CCC(CNC(=O)C2(c3cc(C)cc(C)c3)CCC2)C1 (stereo unspecified) | 16.9%
O=C(O)COc1ccc(Cl)cc1CN1CCC2(CCNCC2)CC1 | -11.2%
COCCCN(Cc1cc(O)nc2ccccc12)C(=O)NC(C)C | -13.5%
CCC(C)N(Cc1sccc1C)C(=O)c1cc(N)ccn1 (stereo unspecified) | -11.9%
CC(C)c1ccc(C(=O)N2CCOCC2CC(=O)c2ccco2)cn1 (stereo unspecified) | -5.67%
O=C(NC[C@H]1Cn2c(-c3ccccc3)cnc2CO1)C1CCOCC1 | -9.93%
COc1ccc(CNC(C)c2cn[nH]c2C)cc1 (stereo unspecified) | 14.1%
CCN(C(=O)CN1CCCC1c1cccs1)c1ccccc1C (stereo unspecified) | 30.3%
O=C1CC(c2ccc(O)cc2)c2c(c(C(=O)O)cn2-c2ccccc2)N1 (stereo unspecified) | -10.6%
CCOc1ccc(CN2CCOCC2c2[nH]ncc2C)cc1CO (stereo unspecified) | -2.3%
CCCC(=O)N1CC[C@@H]2[C@H](CC1)N(Cc1cccnc1)CCS2(=O)=O | 4.18%
CNc1cc2c(nn1)CCN(C(=O)C1CCCc3ccccc31)C2 (stereo unspecified) | -19%

Compound | cytotoxicity at 70.5 h
O=C(NCCc1ccncc1)[C@@H]1CC[C@@H]2[C@@H](CCN2Cc2ccco2)O1 | -9.71%
CC(C#N)CN(C)Cc1c(Cl)ccc2cccnc12 (stereo unspecified) | 23%
CC(C)n1cc(CN(Cc2ccsc2)CC2CCCO2)cn1 (stereo unspecified) | -1.43%
COc1cc(CN(C)C(C)c2ccccn2)cc2c1OCO2 (stereo unspecified) | -13.1%
CN1CC(C(=O)NC(C)(C)CNC(=O)OC(C)(C)C)CC1=O (stereo unspecified) | 9.2%
CC1Cc2ccccc2N1C(=O)Cn1nc(-c2cccs2)ccc1=O (stereo unspecified) | -8.13%
CC(C)Nc1ncnc2c1CCN(C(=O)CN(C)C)CC2 | 36.6%
CC(C)(C)C(C#N)NC(=O)c1ccc(Oc2cccnc2)cc1 (stereo unspecified) | -8.31%
N#Cc1ccc(N2CCN(c3cnccn3)CC2)cc1C(F)(F)F | 24.7%
CNC(=O)[C@H]1C[C@@H]2CN(S(=O)(=O)c3ccc(C)cc3)C[C@@H]2N1C | -1.06%
Cc1nn(C)cc1C(=O)N1C[C@H]2CC[C@@H]1CN(S(=O)(=O)N(C)C)C2 | -4.81%
Cc1nc(C2CCCN2CC(=O)NCCc2ccc(Cl)cc2)no1 (stereo unspecified) | -2.31%
O=C(NCCCn1nc2ccccn2c1=O)NCc1ccccc1 | -0.996%
CC(C)c1nnc2ccc(N3CCC(C(=O)O)CC3)nn12 | -25.9%
CCN1C(=O)C(c2ccccc2)CC12CCN(Cc1cccnc1)CC2 (stereo unspecified) | -7.6%
O=C(c1ccco1)N1CCO[C@@H]2CNCC[C@@H]2C1 | 32.1%
CNc1nc(C)cc(NC2CCCN(C3Cc4ccccc4C3)C2)n1 (stereo unspecified) | 14.9%
CCc1nc(C2CCCN2Cc2ccno2)no1 (stereo unspecified) | -14.3%
CCn1ccnc1CN1CCCN(C(=O)Cc2ccc(C)s2)CC1 | 26.4%
COc1c(C2CCCN2C(=O)c2cncnc2C)c(C)nn1C (stereo unspecified) | 39.1%
Cc1noc(C)c1CN1CCc2ncnc(-c3ccoc3)c2CC1 | 15.5%
Cc1cc(N2CCC(N(C)C(=O)c3sccc3C)CC2)nc(C)n1 | -4.75%
CCCN(Cc1cnn(C)c1)S(=O)(=O)c1ccc(F)c(C#N)c1 | -7.37%

Compound | cytotoxicity at 70.5 h
Cn1nc(C2CCN(C(=O)CCN3CCOCC3)CC2)c2cccnc21 | -2.43%
Cn1nccc1C(=O)N1CCOC(Cc2cccc(C(F)(F)F)c2)C1 (stereo unspecified) | 4.43%
Cc1cccc(S(=O)(=O)N2CCCc3c(c(=O)n(C)n3C)C2)c1 | -9.39%
CNC(=O)CN1CCO[C@H]2CN(C(=O)c3ccncc3F)C[C@H]21 | -3.77%
CCn1cc(NC(=O)C2CCN(Cc3nc(C)c(C)s3)CC2)cn1 | -5.47%
Cn1cnc(S(=O)(=O)N2CCO[C@H]3[C@@H](OCC4CC4)CC[C@@H]32)c1 | 11.1%
COc1ccc(-c2cc(C(=O)N3N=C(C)CC3(O)C(F)(F)F)[nH]n2)cc1 (stereo unspecified) | 12.4%
N[C@@H](Cc1c[nH]cn1)C(=O)N1CCC(Oc2ccc(F)cc2)CC1 | -4.52%
OC(CN1CCN(CCOCC(F)(F)F)CC1)c1ccccc1 (stereo unspecified) | 24.5%
CC(=O)N1CCC(Cc2ccc(-c3ccnn3C)nc2)CC1 | -7.13%
Cc1cc(S(C)(=O)=O)c(C)c(S(=O)(=O)N2CCCCCC2)c1 | -7.91%
Cc1cccc(-c2cccc(CC3(C(=O)O)CCOCC3)c2)c1 | 9.91%
Cn1cc(CN2CC[C@H]3O[C@H](C(=O)NC4CC4)CC[C@H]32)c2ccccc21 | -3.36%
CC(C)(C)c1cc(CN2C[C@H]3CC[C@@H]2CN(Cc2ccccn2)C3)n[nH]1 | -5.84%
CC(C)CCN1CCc2cc(C(=O)N(C)C)c(NCC3CC3)nc2CC1 | 5.09%
CN(C)CCn1cc(NC(=O)NC(C)(C)c2nccs2)cn1 | -3.3%
Cc1nc(C(C)NC(=O)c2cn(C/C=C/c3ccccc3)nn2)n[nH]1 (stereo unspecified) | -13.1%
CC(CN1CCOCC1)NC(=O)NCc1cccs1 (stereo unspecified) | -7.69%
COC(=O)c1oc(CNC(C)(C)c2ccc3c(c2)OCO3)cc1C | 19.5%
